Reference: ChEMBL document CHEMBL3397039, “Anti-inflammatory activity of phenolic compounds from the whole plant of Scutellaria indica” (Bioorg Med Chem Lett, 2015)

What was measured:
RAW264.7 [1] = assay: Anti-inflammatory activity in mouse RAW264.7 cells assessed as inhibition of LPS-induced nitric oxide production by Griess reaction based method; format: functional, cell-based
RAW264.7 [2] = assay: Toxicity against mouse RAW264.7 cells at 30 uM after 24 hrs in absence of LPS by MTT assay; format: cell-based; conditions: raw264.7, 24 h
RAW264.7 [3] = assay: Toxicity against mouse RAW264.7 cells at 30 uM after 24 hrs in presence of LPS by MTT assay; format: cell-based; conditions: raw264.7, 24 h
RAW264.7 [4] = assay: Effect on alpha-tubulin protein expression in mouse RAW264.7 cells up to 30 uM by Western blotting method; format: ADME, cell-based
RAW264.7 [5] = assay: Inhibition of LPS-induced iNOS protein expression in mouse RAW264.7 cells by Western blotting method; format: functional, cell-based

`COc1cc(O)c2c(c1OC)O[C@H](c1c(O)cccc1O[C@@H]1O[C@H](CO)[C@@H](O)[C@H](O)[C@H]1O)CC2=O` was tested, and the IC50 (RAW264.7 [1]) was > 30 µM, the Activity (RAW264.7 [2]) was “Non-toxic” and the Activity (RAW264.7 [3]) was “Non-toxic”.

For `COc1ccc([C@@H]2CC(=O)c3c(O)c(OC)c(OC)c(OC)c3O2)cc1`, the IC50 (RAW264.7 [1]) was 27.8 µM, the Activity (RAW264.7 [2]) was “Non-toxic” and the Activity (RAW264.7 [3]) was “Non-toxic”.

For `COc1c(O[C@@H]2O[C@H](C(=O)O)[C@@H](O)[C@H](O)[C@H]2O)cc(O)c2c1O[C@H](c1ccccc1O)CC2=O`, the IC50 (RAW264.7 [1]) was > 30 µM, the Activity (RAW264.7 [2]) was “Non-toxic” and the Activity (RAW264.7 [3]) was “Non-toxic”.

In the case of `COc1ccccc1[C@@H]1CC(=O)c2c(O)cc(O[C@@H]3O[C@H](CO)[C@@H](O)[C@H](O)[C@H]3O)c(OC)c2O1`, the IC50 (RAW264.7 [1]) is reported as > 30 µM, the Activity (RAW264.7 [2]) is reported as “Non-toxic” and the Activity (RAW264.7 [3]) is reported as “Non-toxic”.

In the case of `COC(=O)[C@H]1O[C@@H](Oc2c(O)cc(O)c3c(=O)cc(-c4ccccc4)oc23)[C@H](O)[C@@H](O)[C@@H]1O`, the IC50 (RAW264.7 [1]) is reported as > 30 µM, the Activity (RAW264.7 [2]) is reported as “Non-toxic” and the Activity (RAW264.7 [3]) is reported as “Non-toxic”.

In the case of `COC(=O)[C@H]1O[C@@H](Oc2ccccc2[C@@H]2CC(=O)c3c(O)cc(OC)c(OC)c3O2)[C@H](O)[C@@H](O)[C@@H]1O`, the IC50 (RAW264.7 [1]) is reported as > 30 µM, the Activity (RAW264.7 [2]) is reported as “Non-toxic” and the Activity (RAW264.7 [3]) is reported as “Non-toxic”.

`O=C(O)[C@H]1O[C@@H](Oc2c(O)cc(O)c3c(=O)cc(-c4ccccc4)oc23)[C@H](O)[C@@H](O)[C@@H]1O` was tested, and the IC50 (RAW264.7 [1]) was > 30 µM, the Activity (RAW264.7 [2]) was “Non-toxic” and the Activity (RAW264.7 [3]) was “Non-toxic”.

`COc1cc(O)c2c(c1OC)O[C@H](c1cc(O)ccc1O[C@@H]1O[C@H](COC(C)=O)[C@@H](O)[C@H](O)[C@H]1O)CC2=O` was tested, and the IC50 (RAW264.7 [1]) was > 30 µM, the Activity (RAW264.7 [2]) was “Non-toxic” and the Activity (RAW264.7 [3]) was “Non-toxic”.

With `O=c1cc(-c2ccc(O)c(O)c2)oc2cc(O)cc(O)c12` [LUTEOLIN] the IC50 (RAW264.7 [1]) was 7.2 µM, the Activity (RAW264.7 [2]) was “Non-toxic” and the Activity (RAW264.7 [4]) was “Non-toxic”. For the same compound, the Activity (RAW264.7 [3]) was “Non-toxic” and the inhibition (RAW264.7 [5]) was “Dose-dependent effect”.

For `COc1cc(O)c2c(c1OC)O[C@H](c1cc(O)ccc1O[C@@H]1O[C@H](CO)[C@@H](O)[C@H](OC(=O)c3ccc(O)cc3)[C@H]1O)CC2=O`, the IC50 (RAW264.7 [1]) was > 30 µM, the Activity (RAW264.7 [2]) was “Non-toxic” and the Activity (RAW264.7 [3]) was “Non-toxic”.

With `COc1c(O)cc(O)c2c(=O)cc(-c3ccc(O)cc3)oc12` [4'-HYDROXYWOGONIN] the IC50 (RAW264.7 [1]) was 12.5 µM, the Activity (RAW264.7 [2]) was “Non-toxic” and the Activity (RAW264.7 [3]) was “Non-toxic”.

`COC(=O)[C@H]1O[C@@H](Oc2cc(O)c3c(c2OC)O[C@H](c2cccc(OC)c2)CC3=O)[C@H](O)[C@@H](O)[C@@H]1O` was tested, and the IC50 (RAW264.7 [1]) was > 30 µM, the Activity (RAW264.7 [2]) was “Non-toxic” and the Activity (RAW264.7 [3]) was “Non-toxic”.
